The text below walks through data of patent publication US20260042753A1 (Merck Patent GmbH, priority 2019, published 2026).

Experiment [1] has as its target c-Kit(V654A) (Homo sapiens, UniProt P10721, V654A). The experiment is described as follows: c-Kit(V654A) assay. Conditions: Table 1; 200 μM ATP. It is filed as biochemical. Summed up:
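Radiometric filter-binding read-out: after 3% phosphoric acid stop, peptide-incorporated 33P on filtermat scintillation-counted. Enzyme: human c-Kit V654A, residues 544–end, N-terminal GST fusion.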

Experiment [2] concerns the target mutant cKIT (560-576 and V654A) in GIST430/654 cell line (Homo sapiens (Human), UniProt P10721, DEL560-576/V654A). The experiment in a line: Cellular testing of cKIT mutant inhibitors: phospho-Y307-cKIT Luminex assay in GIST430/654 cells. It is filed as cell-based. Conditions: Table 1; cKIT autophosphorylation, compounds 45 min; read-out: GIST 430/654 IC50. Summed up: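 Autophosphorylation of mutant cKIT at Y307 was quantified by a Luminex bead sandwich assay (total-cKIT capture, phosphospecific detection) after 45 min compound exposure in GIST430/654 cells, cultured in medium containing 100 nM imatinib. Signals were normalised to solvent (0.3% DMSO) controls and dose-response curves fitted for IC50.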

Sequence of mutant cKIT (560-576 and V654A) in GIST430/654 cell line (P10721 other isoform, or with tags, fused parts or gaps V654A/del 1-25/del 560-576 limits assumed): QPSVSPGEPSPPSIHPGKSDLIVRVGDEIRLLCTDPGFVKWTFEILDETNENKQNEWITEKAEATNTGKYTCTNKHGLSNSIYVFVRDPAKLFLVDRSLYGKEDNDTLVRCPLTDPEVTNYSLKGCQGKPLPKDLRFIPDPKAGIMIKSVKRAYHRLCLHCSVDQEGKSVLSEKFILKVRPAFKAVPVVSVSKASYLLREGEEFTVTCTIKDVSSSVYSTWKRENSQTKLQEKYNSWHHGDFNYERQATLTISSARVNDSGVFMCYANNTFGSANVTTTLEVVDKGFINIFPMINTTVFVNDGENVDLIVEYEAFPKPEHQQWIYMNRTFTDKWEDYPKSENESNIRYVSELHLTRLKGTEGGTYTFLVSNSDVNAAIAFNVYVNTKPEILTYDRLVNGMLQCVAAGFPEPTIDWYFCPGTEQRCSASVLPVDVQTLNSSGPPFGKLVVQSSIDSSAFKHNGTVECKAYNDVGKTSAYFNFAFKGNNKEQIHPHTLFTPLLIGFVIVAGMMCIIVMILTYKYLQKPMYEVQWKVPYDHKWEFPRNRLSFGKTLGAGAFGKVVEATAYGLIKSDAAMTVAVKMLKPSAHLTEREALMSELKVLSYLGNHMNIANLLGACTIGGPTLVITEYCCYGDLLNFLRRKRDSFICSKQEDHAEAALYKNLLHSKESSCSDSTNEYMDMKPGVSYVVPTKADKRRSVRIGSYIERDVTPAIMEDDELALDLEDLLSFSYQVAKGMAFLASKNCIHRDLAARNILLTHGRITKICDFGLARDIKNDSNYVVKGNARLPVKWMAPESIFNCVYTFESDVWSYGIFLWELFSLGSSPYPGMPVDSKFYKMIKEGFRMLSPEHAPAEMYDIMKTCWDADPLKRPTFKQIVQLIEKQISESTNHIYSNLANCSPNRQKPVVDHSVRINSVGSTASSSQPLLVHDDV

Take `COCCOc1cc2[nH]nc(-c3cc(-c4ccc(C(=O)N5CC[C@H]5C(C)(C)O)cc4)no3)c2cc1F` [A59, 2-[(2S)-1-(4-{5-[5-fluoro-6-(2-methoxyethoxy)-1H-indazol-3-yl]-1,2-oxazol-3-yl}benzoyl)azetidin-2-yl]propan-2-ol]: the IC50 in experiment [1] stood at 0.51 nM; in experiment [2], 33 nM.

Regarding `COCCOc1cc2[nH]nc(-c3cc(-c4ccc(C(=O)N5CCC6(CC5)COC6)cc4)no3)c2cc1F` [A60, 7-(4-{5-[5-fluoro-6-(2-methoxyethoxy)-1H-indazol-3-yl]-1,2-oxazol-3-yl}benzoyl)-2-oxa-7-azaspiro[3.5]nonane], the results for the IC50 in experiment [1] and in experiment [2] were 0.44 nM and 28 nM, respectively.

For the compound `COc1cc2[nH]nc(-c3cc(-c4ccc(C(=O)N5CC(N6CCOCC6)C5)cc4)no3)c2cc1F` [A61, 5-fluoro-6-methoxy-3-(3-{4-[3-(morpholin-4-yl)azetidine-1-carbonyl]phenyl}-1,2-oxazol-5-yl)-1H-indazole], the IC50 in experiment [1] worked out at 5.5 nM; in experiment [2], 110 nM.

As for `COCCOc1cc2[nH]nc(-c3cc(-c4ccc(C(=O)N5CCC[C@@H]5CO)nc4)no3)c2cc1F` [A62, (5-{5-[5-fluoro-6-(2-methoxy-ethoxy)-1H-indazol-3-yl]-isoxazol-3-yl}-pyridin-2-yl)-((R)-2-hydroxymethyl-pyrrolidin-1-yl)-methanone], the values for the IC50 in experiment [1] and in experiment [2] were 5.6 nM and 450 nM, respectively.

`COCCOc1cc2[nH]nc(-c3cc(-c4ccc(C(=O)N5CCC[C@H]5CO)nc4)no3)c2cc1F` [A63, (5-{5-[5-fluoro-6-(2-methoxy-ethoxy)-1H-indazol-3-yl]-isoxazol-3-yl}-pyridin-2-yl)-((S)-2-hydroxymethyl-pyrrolidin-1-yl)-methanone]: the IC50 came to 5.7 nM in experiment [1] and 290 nM in experiment [2].

In the case of `COCCOc1cc2[nH]nc(-c3cc(-c4ccc(C(=O)N5CC(N6CCOCC6)C5)cc4)no3)c2cc1Cl` [A64, (4-{5-[5-chloro-6-(2-methoxy-ethoxy)-1H-indazol-3-yl]-isoxazol-3-yl}-phenyl)-(3-morpholin-4-yl-azetidin-1-yl)-methanone], the IC50 in experiment [1] amounted to 0.53 nM; in experiment [2], 32 nM.

`COCCOc1cc2[nH]nc(-c3cc(-c4ccc(C(=O)N5CC(N6CCN(C)CC6)C5)cc4)no3)c2cc1Cl` [A65, (4-{5-[5-chloro-6-(2-methoxy-ethoxy)-1H-indazol-3-yl]-isoxazol-3-yl}-phenyl)-[3-(4-methyl-piperazin-1-yl)-azetidin-1-yl]-methanone]: the IC50 in experiment [1] is 0.89 nM; in experiment [2] it was 160 nM.

In the case of `COCCOc1cc2[nH]nc(-c3cc(-c4ccc(C(=O)N5CCOC[C@@H]5CO)cc4)no3)c2cc1Cl` [A66, (4-{5-[5-chloro-6-(2-methoxy-ethoxy)-1H-indazol-3-yl]-isoxazol-3-yl}-phenyl)-((S)-3-hydroxymethyl-morpholin-4-yl)-methanone], the IC50 was 0.65 nM in experiment [1] and 52 nM in experiment [2].

`COCCOc1cc2[nH]nc(-c3cc(-c4ccc(C(=O)N5CCOC[C@H]5CO)cc4)no3)c2cc1Cl` [A67, (4-{5-[5-chloro-6-(2-methoxy-ethoxy)-1H-indazol-3-yl]-isoxazol-3-yl}-phenyl)-((R)-3-hydroxymethyl-morpholin-4-yl)-methanone]: the IC50 came out at 0.88 nM in experiment [1] and 94 nM in experiment [2].

Regarding `COCCOc1cc2[nH]nc(-c3cc(-c4ccc(C(=O)N5CCN(C6COC6)CC5)nc4)no3)c2cc1F` [A68, (5-{5-[5-fluoro-6-(2-methoxy-ethoxy)-1H-indazol-3-yl]-isoxazol-3-yl}-pyridin-2-yl)-(4-oxetan-3-yl-piperazin-1-yl)-methanone], the IC50 came to 16 nM in experiment [1] and 870 nM in experiment [2].

For `COCCOc1cc2[nH]nc(-c3cc(-c4ccc(C(=O)N5CC(N6CCOCC6)C5)nc4)no3)c2cc1F` [A69, (5-{5-[5-fluoro-6-(2-methoxy-ethoxy)-1H-indazol-3-yl]-isoxazol-3-yl}-pyridin-2-yl)-(3-morpholin-4-yl-azetidin-1-yl)-methanone], the IC50 in experiment [1] worked out at 20 nM; in experiment [2], 190 nM.

`COCCOc1cc2[nH]nc(-c3cc(-c4ccc(C(=O)N5C[C@H]6COC[C@H]6C5)c(C)c4)no3)c2cc1F` [A70, (4-{5-[5-fluoro-6-(2-methoxy-ethoxy)-1H-indazol-3-yl]-isoxazol-3-yl}-2-methyl-phenyl)-(cis)-tetrahydro-furo[3,4-c]pyrrol-5-yl-methanone]: the results for the IC50 in experiment [1] and in experiment [2] were 2.1 nM and 81 nM, respectively.

For the compound `COCCOc1cc2[nH]nc(-c3cc(-c4ccc(C(=O)N5C[C@H]6COC[C@H]6C5)c(F)c4)no3)c2cc1F` [A71, (2-fluoro-4-{5-[5-fluoro-6-(2-methoxy-ethoxy)-1H-indazol-3-yl]-isoxazol-3-yl}-phenyl)-(cis)-tetrahydro-furo[3,4-c]pyrrol-5-yl-methanone], the IC50 was determined as 4.3 nM in experiment [1] and 90 nM in experiment [2].

Consider `COCCOc1cc2[nH]nc(-c3cc(-c4ccc(C(=O)NCCN(C)C)cc4)no3)c2cc1F` [A72, N-[2-(dimethylamino)ethyl]-4-{5-[5-fluoro-6-(2-methoxyethoxy)-1H-indazol-3-yl]-1,2-oxazol-3-yl}benzamide], for which the IC50 worked out at 2.6 nM in experiment [1] and 320 nM in experiment [2].

For `COCCOc1cc2[nH]nc(-c3cc(-c4ccc(C(=O)NC5CN(C)C5)cc4)no3)c2cc1F` [A73, 4-{5-[5-fluoro-6-(2-methoxyethoxy)-1H-indazol-3-yl]-1,2-oxazol-3-yl}-N-(1-methylazetidin-3-yl)benzamide], the IC50 in experiment [1] was 4 nM; in experiment [2], 430 nM.

Turning to `COCCOc1cc2[nH]nc(-c3cc(-c4ccc(C(=O)N5CC6(COC6)C5)cc4)no3)c2cc1F` [A74, 5-fluoro-6-(2-methoxyethoxy)-3-[3-(4-{2-oxa-6-azaspiro[3.3]heptane-6-carbonyl}phenyl)-1,2-oxazol-5-yl]-1H-indazole], the IC50 in experiment [1] amounted to 1.3 nM; in experiment [2], 52 nM.

As to `COCCOc1cc2[nH]nc(-c3cc(-c4ccc(C(=O)N5CC(n6cccn6)C5)cc4)no3)c2cc1F` [A75, 5-fluoro-6-(2-methoxyethoxy)-3-(3-{4-[3-(1H-pyrazol-1-yl)azetidine-1-carbonyl]phenyl}-1,2-oxazol-5-yl)-1H-indazole], the IC50 in experiment [1] amounted to 1.4 nM; in experiment [2] it was 59 nM.

As to `COCCOc1cc2[nH]nc(-c3cc(-c4ccc(C(=O)N5CC(N(C)C)C5)cc4)no3)c2cc1F` [A76, 1-(4-{5-[5-fluoro-6-(2-methoxyethoxy)-1H-indazol-3-yl]-1,2-oxazol-3-yl}benzoyl)-N,N-dimethylazetidin-3-amine], the IC50 is 2 nM in experiment [1] and 79 nM in experiment [2].

As for `COCCOc1cc2[nH]nc(-c3cc(-c4ccc(C(=O)N5CC6(CCOC6)C5)cc4)no3)c2cc1F` [A77, 5-fluoro-6-(2-methoxyethoxy)-3-[3-(4-{6-oxa-2-azaspiro[3.4]octane-2-carbonyl}phenyl)-1,2-oxazol-5-yl]-1H-indazole], the figures for the IC50 in experiment [1] and in experiment [2] were 1 nM and 47 nM, respectively.

For the compound `COCCOc1cc2[nH]nc(-c3cc(-c4ccc(C(=O)N5CC[S+]([O-])CC5)cc4)no3)c2cc1F` [A78, 4-(4-{5-[5-fluoro-6-(2-methoxyethoxy)-1H-indazol-3-yl]-1,2-oxazol-3-yl}benzoyl)-1lambda4-thiomorpholin-1-one], the IC50 in experiment [1] is 0.76 nM; in experiment [2], 160 nM.
